What was measured:
[1] = molecular target: T1, human AMPA receptor GluA1i/2i (Homo sapiens, UniProt P42261+P42262, Q607R); assay: Glutamate-evoked currents, oocytes expressing recombinant human AMPA receptors; format: cell-based
T1 construct: host or cells: Xenopus laevis oocytes
Experimental: (§1) Compounds were tested by bath application.

[2] = molecular target: T2, human AMPA receptor GluA4i (GluA4 flip) (Homo sapiens, UniProt P48058); assay: as above; format: cell-based
T2 construct: host or cells: Xenopus laevis oocytes
Experimental: as §1

[3] = molecular target: T3, human AMPA receptor GluA4i/2i (Homo sapiens, UniProt P42262+P48058, Q607R); assay: as above; format: cell-based
T3 construct: host or cells: Xenopus laevis oocytes
Experimental: as §1

Phospholipase A2 = assay: Enzyme and cell-based assay, [3H]phosphatidylethanolamine

T3 sequence (P48058 21-902): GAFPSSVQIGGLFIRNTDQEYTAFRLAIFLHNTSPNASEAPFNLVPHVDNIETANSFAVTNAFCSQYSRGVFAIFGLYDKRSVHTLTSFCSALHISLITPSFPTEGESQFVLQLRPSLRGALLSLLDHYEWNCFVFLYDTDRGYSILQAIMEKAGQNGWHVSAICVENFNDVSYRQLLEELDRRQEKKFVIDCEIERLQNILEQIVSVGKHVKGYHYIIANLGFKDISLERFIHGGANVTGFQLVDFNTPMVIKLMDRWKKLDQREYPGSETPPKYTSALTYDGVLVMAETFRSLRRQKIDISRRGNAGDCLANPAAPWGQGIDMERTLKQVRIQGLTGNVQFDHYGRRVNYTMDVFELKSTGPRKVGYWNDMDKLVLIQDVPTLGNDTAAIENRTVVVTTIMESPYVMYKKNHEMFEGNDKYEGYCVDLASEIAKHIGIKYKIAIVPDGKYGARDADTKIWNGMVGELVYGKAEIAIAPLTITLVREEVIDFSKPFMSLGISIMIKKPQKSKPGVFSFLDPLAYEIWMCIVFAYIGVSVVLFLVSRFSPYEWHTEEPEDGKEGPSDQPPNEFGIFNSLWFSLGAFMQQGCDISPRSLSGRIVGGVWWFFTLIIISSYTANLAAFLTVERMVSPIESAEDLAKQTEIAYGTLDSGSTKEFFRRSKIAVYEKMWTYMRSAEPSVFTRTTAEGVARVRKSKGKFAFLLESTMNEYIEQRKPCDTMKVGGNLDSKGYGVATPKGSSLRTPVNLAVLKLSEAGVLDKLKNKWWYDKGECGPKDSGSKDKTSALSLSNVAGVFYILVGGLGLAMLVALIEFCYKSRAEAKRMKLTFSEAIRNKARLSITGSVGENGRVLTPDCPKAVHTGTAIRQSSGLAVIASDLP
T3 sequence (P42262 22-883 isoform P42262-2 Q607R limits assumed): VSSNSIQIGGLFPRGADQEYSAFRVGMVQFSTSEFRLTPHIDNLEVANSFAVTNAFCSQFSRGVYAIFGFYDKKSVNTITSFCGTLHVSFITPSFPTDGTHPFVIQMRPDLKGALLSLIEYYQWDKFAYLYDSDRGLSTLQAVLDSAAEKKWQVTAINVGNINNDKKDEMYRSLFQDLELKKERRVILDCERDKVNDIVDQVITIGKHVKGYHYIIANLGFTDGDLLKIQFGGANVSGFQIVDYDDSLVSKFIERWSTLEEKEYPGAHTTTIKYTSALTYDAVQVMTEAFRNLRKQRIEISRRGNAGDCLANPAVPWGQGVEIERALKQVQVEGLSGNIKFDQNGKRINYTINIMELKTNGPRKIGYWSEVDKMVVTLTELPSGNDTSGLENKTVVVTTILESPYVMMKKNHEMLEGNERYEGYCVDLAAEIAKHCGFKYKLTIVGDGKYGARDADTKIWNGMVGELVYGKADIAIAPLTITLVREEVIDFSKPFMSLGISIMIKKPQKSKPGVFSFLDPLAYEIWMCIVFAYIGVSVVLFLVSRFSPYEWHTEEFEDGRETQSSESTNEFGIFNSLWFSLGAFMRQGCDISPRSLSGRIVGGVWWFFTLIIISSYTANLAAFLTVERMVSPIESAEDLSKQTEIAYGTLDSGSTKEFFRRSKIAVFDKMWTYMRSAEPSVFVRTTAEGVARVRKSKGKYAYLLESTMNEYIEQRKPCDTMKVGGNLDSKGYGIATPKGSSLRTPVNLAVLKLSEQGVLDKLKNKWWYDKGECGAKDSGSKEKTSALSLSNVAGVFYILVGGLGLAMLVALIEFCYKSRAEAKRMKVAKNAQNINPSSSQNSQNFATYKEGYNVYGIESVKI
T2 sequence (P48058 21-902): as the sequence (P48058 21-902) above
T1 sequence (P42261 19-906 isoform P42261-2 limits assumed, stated change not applied): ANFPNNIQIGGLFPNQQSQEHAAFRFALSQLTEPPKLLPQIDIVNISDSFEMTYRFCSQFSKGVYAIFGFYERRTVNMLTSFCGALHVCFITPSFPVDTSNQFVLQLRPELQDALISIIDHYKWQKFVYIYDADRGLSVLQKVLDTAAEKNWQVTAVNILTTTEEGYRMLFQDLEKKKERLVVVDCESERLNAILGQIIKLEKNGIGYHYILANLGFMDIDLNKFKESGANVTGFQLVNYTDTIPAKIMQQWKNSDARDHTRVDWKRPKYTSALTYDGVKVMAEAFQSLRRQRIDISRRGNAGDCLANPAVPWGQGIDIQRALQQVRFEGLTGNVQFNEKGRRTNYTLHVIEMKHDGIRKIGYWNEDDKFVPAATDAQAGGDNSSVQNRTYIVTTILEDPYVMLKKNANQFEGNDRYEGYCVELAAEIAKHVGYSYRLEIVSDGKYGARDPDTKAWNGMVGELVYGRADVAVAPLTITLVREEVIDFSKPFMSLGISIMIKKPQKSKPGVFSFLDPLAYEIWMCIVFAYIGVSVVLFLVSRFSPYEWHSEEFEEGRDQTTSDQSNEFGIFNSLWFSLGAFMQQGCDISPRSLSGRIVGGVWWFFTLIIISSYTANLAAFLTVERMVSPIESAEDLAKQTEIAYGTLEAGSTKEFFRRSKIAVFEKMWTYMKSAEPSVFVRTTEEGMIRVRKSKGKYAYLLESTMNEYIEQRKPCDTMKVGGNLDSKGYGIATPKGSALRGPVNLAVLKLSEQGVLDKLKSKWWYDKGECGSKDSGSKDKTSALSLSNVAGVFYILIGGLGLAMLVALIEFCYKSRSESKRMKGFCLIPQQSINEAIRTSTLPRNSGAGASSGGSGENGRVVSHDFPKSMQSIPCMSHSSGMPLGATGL
T1 sequence (P42262 22-883 isoform P42262-2 Q607R limits assumed): as the sequence (P42262 22-883 isoform P42262-2 Q607R limits assumed) above

## O=C1c2cc3nnn(CCc4cccc(F)c4)c(=O)c3cc2OCN1C1CC1 [S 47445, 8-cyclopropyl-3-[2-(3-fluorophenyl)ethyl]-7,8-dihydro-3H-[1,3]oxazino[6,5-g][1,2,3]benzotriazine-4,9-dione]
[1]
  EC50: 2.6 µM
[2]
  EC50: 3 µM
[3]
  EC50: 5.4 µM
Phospholipase A2; S 47445 1.0E-05 M
  % Inhibition of control specific binding: -4%
Phospholipase A2; S 47445 1.0E-07 M
  % Inhibition of control specific binding: 0%

From paper PMC5590943, “Pharmacological characterisation of S 47445, a novel positive allosteric modulator of AMPA receptors” (PLoS ONE, 2017)
